Measured values as given in PMC9386018, “A lymphatic-absorbed multi-targeted kinase inhibitor for myelofibrosis therapy” (Nature Communications, 2022).
“And” between values parts separate entries of the source, which are not always exact repeats. Identical values can stand only once.

Test: Pharmacokinetic analysis of plasma after intravenous and oral dosing

Concentration (Supplementary Figure 6a, i.v., Time 0.167 h, individual replicates): 6.65 ng/mL and 5.91 ng/mL | Concentration (Supplementary Figure 6a, p.o., Time 0.167 h, individual replicates): 36.6 ng/mL and 47.3 ng/mL and 12.7 ng/mL | Concentration (Supplementary Figure 6a, p.o., Time 0.5 h, individual replicates): 11.6 ng/mL and 6.25 ng/mL | Concentration (Supplementary Figure 6a, p.o., Time 1 h, individual replicates): 8.93 ng/mL and 16.9 ng/mL and 5.41 ng/mL | concentration at 0.167 h (female, CD-1, mouse, plasma, iv, 15 mg kg^−1, Concentration, Supplementary Figure 6a, Time 0.167 h, individual replicates): 9.48 ng/mL | concentration at 0.5 h (female, CD-1, mouse, plasma, iv, 15 mg kg^−1, Concentration, Time 0.5 h, individual animals, Supplementary Figure 12b): 642 ng/mL | concentration at 1 h (female, CD-1, mouse, plasma, iv, 15 mg kg^−1, Concentration, Time 1 h, individual animals, Supplementary Figure 12b): 694 ng/mL | concentration at 2 h (female, CD-1, mouse, plasma, iv, 15 mg kg^−1, Concentration, Time 2 h, individual animals, Supplementary Figure 12b): 122 ng/mL | concentration at 4 h (female, CD-1, mouse, plasma, iv, 15 mg kg^−1, Concentration, Time 4 h, individual animals, Supplementary Figure 12b): 36.6 ng/mL | concentration at 7 h (female, CD-1, mouse, plasma, iv, 15 mg kg^−1, Concentration, Time 7 h, individual animals, Supplementary Figure 12b): 23.1 ng/mL | concentration at 16 h (female, CD-1, mouse, plasma, iv, 15 mg kg^−1, Concentration, Time 16 h, individual animals, Supplementary Figure 12b): 1.67 ng/mL | concentration at 24 h (female, CD-1, mouse, plasma, iv, 15 mg kg^−1, Concentration, Time 24 h, individual animals, Supplementary Figure 12b): 3.48 ng/mL | concentration at 0.5 h (female, CD-1, mouse, plasma, po, 400 mg kg^−1, Concentration, Supplementary Figure 6a, Time 0.5 h, individual replicates): 8.5 ng/mL | concentration at 2 h (female, CD-1, mouse, plasma, po, 400 mg kg^−1, Concentration, Supplementary Figure 6a, Time 2 h, individual replicates): 3.37 ng/mL | Concentration (i.v., Time 0.167 h, individual animals, Supplementary Figure 12b): 6980 ng/mL and 3600 ng/mL and 9800 ng/mL | Concentration (i.v., Time 0.5 h, individual animals, Supplementary Figure 12b): 950 ng/mL and 1228 ng/mL | Concentration (i.v., Time 1 h, individual animals, Supplementary Figure 12b): 1082 ng/mL | Concentration (i.v., Time 2 h, individual animals, Supplementary Figure 12b): 115.8 ng/mL and 191 ng/mL | Concentration (i.v., Time 4 h, individual animals, Supplementary Figure 12b): 46.7 ng/mL and 58.4 ng/mL | Concentration (i.v., Time 7 h, individual animals, Supplementary Figure 12b): 33.2 ng/mL and 30.9 ng/mL | Concentration (i.v., Time 16 h, individual animals, Supplementary Figure 12b): 1.98 ng/mL | Concentration (i.v., Time 24 h, individual animals, Supplementary Figure 12b): 2.84 ng/mL and 3.15 ng/mL | Concentration (p.o., Time 0.167 h, individual animals, Supplementary Figure 12b): 470 ng/mL and 532 ng/mL and 956 ng/mL | Concentration (p.o., Time 0.5 h, individual animals, Supplementary Figure 12b): 3100 ng/mL and 1908 ng/mL and 6600 ng/mL | Concentration (p.o., Time 1 h, individual animals, Supplementary Figure 12b): 1430 ng/mL and 460 ng/mL and 669 ng/mL | Concentration (p.o., Time 2 h, individual animals, Supplementary Figure 12b): 1190 ng/mL and 582 ng/mL and 3880 ng/mL | Concentration (p.o., Time 4 h, individual animals, Supplementary Figure 12b): 221 ng/mL and 348 ng/mL and 1410 ng/mL | Concentration (p.o., Time 7 h, individual animals, Supplementary Figure 12b): 1250 ng/mL and 340 ng/mL and 726 ng/mL | Concentration (p.o., Time 16 h, individual animals, Supplementary Figure 12b): 461 ng/mL and 352 ng/mL and 189 ng/mL | Concentration (p.o., Time 24 h, individual animals, Supplementary Figure 12b): 55.8 ng/mL and 114 ng/mL and 252 ng/mL
Compound: O=C(O)CCOCCOCCOCCONC(=O)c1ccc(F)c(F)c1Nc1ccc(I)cc1F [LP-622, 1-(3,4-difluoro-2-((2-fluoro-4-iodophenyl)amino)phenyl)-1-oxo-3,6,9,12-tetraoxa-2-azapentadecan-15-oic acid]
